The test system of one experiment is S. aureus. Also noted: method as in PMID 35914415. The settings on record: reducing cell surface hydrophobicity and membrane permeability; cited from earlier work.
A further experiment deals with MDA-MB-231 cells. Description: MTT cytotoxicity assay on breast cancer cells. The experiment is classed as cell-based, human. The settings on record: for IC50: Homo sapiens, MDA-MB-231 breast cancer cells, MTT, 24 h; for selectivity index (SI): toxicity on RAW264.7 compared to MDA-MB-231 cancer cells. The protocol:
(§1) Cytotoxicity and antiproliferative effects of compounds were evaluated against Murine macrophage cells (RAW264.7) and breast adenocarcinoma cancer cells (MDA-MB-231) using the spectrophotometric, 3-(4,5-dimethylthiazol-2-yl)-2,5-diphenyltetrazolium bromide (MTT) assay ([16]). Cells (5 × 10^4 cell/well) were seeded in Dulbecco’s modified eagle’s medium (DMEM; Gibco) in a 96 well plate for 24 h incubation at 37 °C in 5% CO2 and treated with compounds (2.5 - 200 µg/mL) and positive control, Doxorubicin (2.5 - 200 µM). Untreated cells and 5% DMSO treated cells were assayed as negative and solvent control, respectively. After 24 h incubation, 20 µL MTT dye (5 mg/mL) was pipetted in all wells including wells with untreated cells, and incubated for 4 h. The medium was aspirated and 100 µL of DMSO was added to all the wells to dissolve the formazan crystals and the optical density (OD) was measured after an hour at 570 nm using a microplate reader.

Experiment [1] deals with RAW264.7 cells. The experiment is described as follows: MTT cytotoxicity assay on normal macrophage cells. The experiment is classed as cell-based. As to conditions: Mus musculus, RAW264.7 normal murine macrophage cells, 24 h. The protocol: as §1
In experiment [2] the test system is Escherichia coli, Staphylococcus aureus and Candida albicans. The experiment is described as follows: Microplate serial dilution MIC assay, stated across the three strains. The experiment is classed as cell-based. As to conditions: across the three strains (E. coli, S. aureus, C. albicans). As to the method:
Three microorganisms used in this study, two bacterial strains (Escherichia coli ATCC 25922 - Gram-negative and Staphylococcus aureus ATCC 25923 - Gram-positive) and a fungus (Candida albicans ATCC 10231) were procured from Anatech Instruments (Pty) Ltd, Randburg, Gauteng, South Africa (Anatech, Kwik-stick®). Escherichia coli and S. aureus were cultured in nutrient agar while the fungus (C. albicans ATCC 10231) was cultured on sabouraud dextrose agar (SDA) and incubated for 24 h under aerobic conditions at 37 °C. Pure colonies of microorganisms from the agar were transferred onto nutrient broth and sabouraud dextrose broth (SDB) to obtain an overnight culture. Compounds 1 – 6 were weighed and dissolved in 5% Dimethyl sulfoxide (DMSO) to a final working stock solution of 4 mg/mL. Standard antibiotics Ciprofloxacin and Amphotericin-B were also dissolved in 5% DMSO. The samples were kept at 20 °C in the dark until used. Antimicrobial activity was done using the microplate serial dilution method by Eloff, ([14]). The minimum inhibitory concentration (MIC) was defined as the lowest concentration of the compound capable of inhibiting microbial growth. […] A staining reagent, 50 µL Resazurin sodium salt (0.2 mg/mL) was used as an indicator of microbial growth and the MIC was visually determined ([15]).

For experiment [3], the system named is Staphylococcus aureus ATCC 25923. Description: Microplate serial dilution MIC assay (resazurin). The settings on record: ATCC25923, S. aureus ATCC 25923, 24 h at 37 °C, tested 7.8-1000 µg/mL. The experiment is classed as cell-based. As to the method:
(§2) Three microorganisms used in this study, two bacterial strains (Escherichia coli ATCC 25922 - Gram-negative and Staphylococcus aureus ATCC 25923 - Gram-positive) and a fungus (Candida albicans ATCC 10231) were procured from Anatech Instruments (Pty) Ltd, Randburg, Gauteng, South Africa (Anatech, Kwik-stick®). Escherichia coli and S. aureus were cultured in nutrient agar while the fungus (C. albicans ATCC 10231) was cultured on sabouraud dextrose agar (SDA) and incubated for 24 h under aerobic conditions at 37 °C. Pure colonies of microorganisms from the agar were transferred onto nutrient broth and sabouraud dextrose broth (SDB) to obtain an overnight culture. Compounds 1 – 6 were weighed and dissolved in 5% Dimethyl sulfoxide (DMSO) to a final working stock solution of 4 mg/mL. Standard antibiotics Ciprofloxacin and Amphotericin-B were also dissolved in 5% DMSO. The samples were kept at 20 °C in the dark until used. Antimicrobial activity was done using the microplate serial dilution method by Eloff, ([14]). The minimum inhibitory concentration (MIC) was defined as the lowest concentration of the compound capable of inhibiting microbial growth. The microorganisms were adjusted according to 0.5 McFarland standard solution to a final concentration of 1.5 × 10^4 CFU/mL in sterile 0.85% sodium chloride (NaCl) solution. Compounds were tested at the concentration range of 7.8-1000 µg/mL in 96 well plates and incubated with microorganisms for 24 h at 37 °C. Ciprofloxacin and Amphotericin-B were used as positive controls for bacterial and fungal assays, respectively. In addition, sterile distilled 5% DMSO was used as a negative control. A staining reagent, 50 µL Resazurin sodium salt (0.2 mg/mL) was used as an indicator of microbial growth and the MIC was visually determined ([15]).

In experiment [4] the test system is Escherichia coli ATCC 25922. The experiment is described as follows: Microplate serial dilution MIC assay (resazurin). The settings on record: ATCC25922, E. coli ATCC 25922, 24 h at 37 °C, tested 7.8-1000 µg/mL. The experiment is classed as cell-based. The protocol: as §2
The test system of experiment [5] is Candida albicans ATCC 10231. The experiment is described as follows: Microplate serial dilution MIC assay (resazurin). The experiment is classed as cell-based. As to conditions: ATCC10231, C. albicans ATCC 10231, 24 h at 37 °C, tested 7.8-1000 µg/mL. As to the method: as §2
A further experiment deals with LPS-induced ROS. Also on record: method as in PMID 18254591, PMID 30302324. As to conditions: read-out: IC50, inhibition of LPS-induced ROS; cited from earlier work.
The test system of the next experiment is LPS-induced RNS. Also noted: method as in PMID 18254591, PMID 30302324. The settings on record: read-out: IC50, inhibition of LPS-induced RNS; cited from earlier work.
For experiment [6], the system named is RAW264.7 cells. Description: LPS-induced intracellular ROS production (H2DCF-DA assay). It is filed as cell-based, murine. The settings on record: RAW264.7, compound 10 µg/mL, LPS 10 µg/mL; for ROS production level: relative to LPS-treated cells. The protocol: Lipopolysaccharide (LPS)-induced reactive oxygen species (ROS) production was probed using an oxidative cell-permeant fluorescent dye 2',7'-dichlorodihydrofluorescein diacetate (H2DCF-DA) ([17]). RAW264.7 cells (5 × 10^4 cells/well) were seeded overnight into a 96 well plate and treated with compounds (10 µg/mL) at concentrations ≤ IC50 values and LPS (10 µg/mL) for 24 h at 37 °C in 5% CO2 rich incubator, then 10 μM H2DCF-DA dye (100 µL) was added for an hour. The fluorescence intensity which correlates to ROS production was measured on a microplate reader at 485 and 535 nm excitation and emission, respectively. Data obtained were subjected to analysis using GraphPad Prism (version 8.2).
Inflammation is a physiological response stimulated by the organism as a way of overcoming pathogenic events employed as a defense mechanism. However, an unregulated inflammatory response can lead to several diseases, including cancer. ROS-inducing approaches rely on the fact that increasing the ROS level over the cytotoxic threshold can result in cellular impairment, damaging DNA, RNA, proteins and lipids in normal cells, even though macrophage cells cannot phagocytize cancerous cells, but release a reasonable amount of pro-inflammatory cytokines that quench cancer cells yet are cytoprotective to normal cells ([6]). In this regard, it was considered that the compounds tested would be able to reduce the production of LPS-induced ROS in normal macrophages. Determination of ROS production in RAW264.7 cells was conducted using the non-toxic IC50 value of 10 µg/mL for all compounds (Table 2). Cells were pre-treated with compounds for 20 h and LPS was added in all treated cells except the untreated control cells. Thereafter H2DCFDA was introduced to the cells. […]
Figure 3 Effects of S. nigrescens compounds 1-6 on LPS-induced ROS production by RAW264.7 cells measured by a micro plate reader (Thermo Scientific Varioskan Flash). […] Experiments were conducted in triplicate and data is expressed as the mean ± SD with p-values calculated against control ^**p < 0.01; ^***p < 0.001

Consider eight compounds from PMC8842601, “Antimicrobial, Cytotoxic and Oxidative Stress Inhibitory Activities of Terpenoids and Flavonols from Senegalia nigrescens (Oliv.) P.J.H. Hurter” (Iranian Journal of Pharmaceutical Research : IJPR, 2021).

Each structure is given as a SMILES string. Converted amounts (≈) assume the structure as drawn.

As for `O=c1cc(-c2ccc(O)cc2)oc2c([C@@H]3O[C@H](CO)[C@@H](O)[C@H](O)[C@H]3O)c(O)cc(O)c12` [Apigenin-8-C-glucoside], the MIC in the experiment with S. aureus is reported as 126 µg/mL (≈ 291 µM).

As for `C=C(C=O)C1CCC2(C)CCC3(C)C(CCC4C5(C)CCC(O)C(C)(C)C5CCC43C)C12` (stereo not drawn) [Compound 1, 3β-hydroxy-20(29)-en-lupan-30-al], the IC50 in the experiment on MDA-MB-231 cells came out at 26.6 µg/mL (≈ 60.5 µM); in the experiment with RAW264.7 cells [1], 16.9 µg/mL (≈ 38.3 µM). The same compound yielded an MIC in experiment [2] not below 250 µg/mL.

On to `C=C(CO)C1CCC2(C)CCC3(C)C(CCC4C5(C)CCC(O)C(C)(C)C5CCC43C)C12` (stereo not drawn) [Compound 2, 30-hydroxylup-20(29)-en-3β-ol], for which, in the experiment with MDA-MB-231 cells, 11.9 µg/mL (≈ 26.8 µM) corresponded to half-maximal inhibition (IC50) and the “selectivity index (SI)” value is reported as 1.92. Moreover, in the experiment on RAW264.7 cells [1], the IC50 amounted to 22.8 µg/mL (≈ 51.5 µM). The same compound showed an MIC in experiment [2] not below 250 µg/mL.

As for `CC1=CC23CCC4C(C)(CO)CCCC4(CO)C2CCC1C3` (stereo not drawn) [Compound 3, ent-kaur-15-en-18,20-diol], the MIC worked out at 125 µg/mL (≈ 411 µM) in [3], 250 µg/mL (≈ 821 µM) in experiment [4] and 62.5 µg/mL (≈ 205 µM) in [5]. Also, the IC50 is 12.6 µg/mL (≈ 41.4 µM) with MDA-MB-231 cells and 18.5 µg/mL (≈ 60.8 µM) with RAW264.7 cells [1]. Further, in the experiment on MDA-MB-231 cells, the “selectivity index (SI)” value turned out to be 1.46.

On to `O=c1c(O)c(-c2ccc(O)c(O)c2)oc2c(O)c(O)ccc12` [Compound 4, melanoxetin], for which the IC50 in the experiment on MDA-MB-231 cells was 22.2 µg/mL (≈ 73.4 µM); in the experiment with RAW264.7 cells [1], 15.8 µg/mL (≈ 52.3 µM); in the experiment on LPS-induced ROS, 12.5 µM; with LPS-induced RNS, 6.9 µM. For the same compound, the “reduction of ROS” value in the experiment with RAW264.7 cells [6] is “approximately 40%”.

In the case of `O=c1c(O)c(-c2ccc(O)c(O)c2)oc2cc(O)cc(O)c12` [Compound 5, quercetin], the MIC in [3] came to 31.2 µg/mL (≈ 103 µM); in [4] it was 62.5 µg/mL (≈ 207 µM); in experiment [5] it was 31.2 µg/mL (≈ 103 µM). The 50% inhibitory concentration (IC50) in the experiment with MDA-MB-231 cells came to 20.6 µg/mL (≈ 68.2 µM); in the experiment on RAW264.7 cells [1], 22.6 µg/mL (≈ 74.8 µM). Besides, the “selectivity index (SI)” value with MDA-MB-231 cells was 1.09. Moreover, in the experiment on RAW264.7 cells [6], the ROS production level result is listed as “below 50%”.

With `COc1c(-c2ccc(O)c(O)c2)oc2cc(O)cc(O)c2c1=O` [Compound 6, quercetin-3-O-methyl ether], the MIC is 31.2 µg/mL (≈ 98.8 µM) in experiment [3], 62.5 µg/mL (≈ 198 µM) in experiment [4] and 31.2 µg/mL (≈ 98.8 µM) in experiment [5]. In addition, the values for the IC50 in the experiment with MDA-MB-231 cells and with RAW264.7 cells [1] were 14 µg/mL (≈ 44.4 µM) and 28.7 µg/mL (≈ 90.8 µM), respectively. Further, the “selectivity index (SI)” value with MDA-MB-231 cells came out at 2.04. In the experiment with RAW264.7 cells [6], the ROS production level entry is “below 50%”.

Turning to `COc1cccc2c1C(=O)c1c(O)c3c(c(O)c1C2=O)C[C@@](O)(C(=O)CO)C[C@@H]3O[C@H]1C[C@H](N)[C@H](O)[C@H](C)O1` [doxorubicin, reference compound], the values for the IC50 with MDA-MB-231 cells and in the experiment with RAW264.7 cells [1] were 9.35 µg/mL (≈ 17.2 µM) and 10.6 µg/mL (≈ 19.5 µM), respectively. In addition, the “selectivity index (SI)” value with MDA-MB-231 cells was found to be 1.13.
